Results as given in article PMC6403271, “Characterization, mechanism of action and optimization of activity of a novel peptide-peptoid hybrid against bacterial pathogens involved in canine skin infections” (Scientific Reports, 2019).
In brackets after ≈: the same amount, converted by molar mass. Entries after “also recorded” stand apart in the source; their conditions may differ. Square brackets hold non-standard residues; d marks the D form. Peptide text beside a SMILES is read from it. N(1-naphthylmethyl)Gly = O=C(O)CNCc1cccc2ccccc12; 2Nal = N[C@@H](Cc1ccc2ccccc2c1)C(=O)O; d1Nal = N[C@H](Cc1cccc2ccccc12)C(=O)O; N(4-MeBn)Gly = Cc1ccc(CNCC(=O)O)cc1; dNle = CCCC[C@@H](N)C(=O)O; Nle = CCCC[C@H](N)C(=O)O; NBuGly = CCCCNCC(=O)O

Tests used:
[1] = assay type: cell-based, human; conditions: human
[2] = system: human red blood cells; assay type: cell-based; conditions: for EC50: red cells of human, 1 h
[3] = system: S. aureus strains; assay type: cell-based, Staphylococcus aureus; conditions: 18 h
Source text: For antibacterial spectrum the following strains were used: Corynebacterium auriscanis, 31551, (54 C6, dog, ear, 2013); Enterococcus faecalis, 27404, (17 C7, dog, wound, 2011); Enterococcus faecium, 30951, (24 C1, dog, ear, 2013); Streptococcus canis, 26740-1, (14 H1, dog, ear, 2010); Staphylococcus aureus, 27266, (16 G9, dog, skin, 2010); Staphylococcus aureus, 27266, (16 G9, dog, skin, 2010); Staphylococcus pseudintermedius 22963, (3 B9, dog, 2007). Acinetobacter baumannii, 27065, (16 D1, dog, wound, 2010); E. coli, 30235, 23 A6, dog, wound, 2012; Klebsiella pneumoniae, 26233, (11 H5, dog, wound, 2010); Pasteurella canis, 31096, (24 C8, dog, skin, 2013); Proteus mirabilis, 25178, (9 A4, dog, ear, 2009); Pseudomonas aeruginosa 26314, 12 C5, dog, urine, 2010). […] 25054, (8 G6, dog, wound, 2009); 27266, (16 G9, dog, skin, 2010 also used in exp above); 28264,(20 B1, dog, wound, 2011); 30935, (24 B9, dog, joint, 2013); 36968, (61 A9, dog, wound, 2016); 37595,(65 D2, dog, joint, 2016); 37708-2, (66 C6, dog, skin, 2016); 38200, (68 E9, dog, skin, 2016); 38565-1, (70 A5, dog, skin, 2017); 38841, (70 G5, dog, urine, 2017). MIC determination was performed by broth microdilution according to the Clinical and Laboratory Standard Institute (CLSI, […]-A3, 2008)[62]. In brief, each bacterial strain was diluted to concentration of 5 × 10^5 CFU/mL in Mueller Hinton broth II (MHB II) media (Oxoid) and added to a two-fold serial dilution of peptides and peptide-peptoid hybrids concentrations ranging from 1 to 64 μg/ml in 96-well plates (Nunc Internationals, Rochester, NY). The MICs were determined as a lowest concentration showing no visible growth after incubation for 18 hours at 37 °C. Experiments were performed in triplicates on two different days.

[4] = system: P. aeruginosa 26314; experiment: Time-kill kinetics, P. aeruginosa 26314; assay type: cell-based, Pseudomonas aeruginosa
Description: Time kill assays were performed in triplicate, meaning that every value is the average of three different samplings. Time–kill kinetic assays were performed using P. aeruginosa (26314), MRSP E104 and/or MRSP C22963 to determine the cell killing activity of B1 and two of its most promising analogues (compounds 23 and 26) based on prior antimicrobial susceptibility testing. The method reported by Blondeau et al.[63] was followed with minor modifications. […] After 0, 15, 30, 60, 120, 180 and 300 min of growth, 100 μL aliquots were collected and 10-fold serially diluted. Twenty μL of cell suspension from each dilution were spotted in triplicate on blood agar plates followed by 16–18 h incubation at 37 °C and determination of colony forming units (CFU).

[5] = system: MRSP C22963; experiment: Time-kill kinetics, MRSP C22963; assay type: cell-based, Staphylococcus pseudintermedius; conditions: for time to complete killing of the MRSP strain: all tested concentrations at or above the MIC
Description: Time kill assays were performed in triplicate, meaning that every value is the average of three different samplings. Time–kill kinetic assays were performed using P. aeruginosa (26314), MRSP E104 and/or MRSP C22963 to determine the cell killing activity of B1 and two of its most promising analogues (compounds 23 and 26) based on prior antimicrobial susceptibility testing. The method reported by Blondeau et al.[63] was followed with minor modifications. Briefly, the assay was performed in MHB II with concentrations corresponding to 0.5, 1, 2 and 4 times the MIC of the strain. After 0, 15, 30, 60, 120, 180 and 300 min of growth, 100 μL aliquots were collected and 10-fold serially diluted. Twenty μL of cell suspension from each dilution were spotted in triplicate on blood agar plates followed by 16–18 h incubation at 37 °C and determination of colony forming units (CFU).

[6] = system: MSSA (ATCC 29213); assay type: cell-based, Staphylococcus aureus; conditions: ATCC 29213, 18 h
Method in brief: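 Broth microdilution per CLSI M31-A3 on canine clinical isolates plus reference MRSP C22963, MSSA and P. aeruginosa 26314; 5 × 10^5 CFU/mL in MHB II with two-fold dilutions from 1 to 64 µg/ml. MIC = lowest concentration without visible growth after 18 hours at 37 °C; triplicates on two days.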

[7] = system: Pronase; conditions: cited from earlier work

Row | Compound | hemolysis at 1 h, 150 µM [1] | Haemolysis EC10 [2] | EC50 [2] | MIC S. aureus strain 25054 [3] | MIC S. aureus strain 27266 [3] | MIC S. aureus strain 28264 [3] | MIC S. aureus strain 30935 [3] | MIC S. aureus strain 36968 [3] | MIC S. aureus strain 37595 [3] | MIC S. aureus strain 37708-2 [3] | MIC S. aureus strain 38200 [3] | MIC S. aureus strain 38565-1 [3] | MIC Staphylococcus aureus [3] | time to complete killing of the MRSP strain [5] | also measured
1 | CCCC[C@H](NC(=O)[C@H](CCCCN)NC(=O)[C@H](CCCCN)NC(=O)[C@@H](N)CCCCN)C(=O)N[C@@H](Cc1ccc2ccccc2c1)C(=O)N[C@@H](Cc1ccccc1)C(=O)N[C@@H](Cc1ccc2ccccc2c1)C(N)=O [Compound 23, Lys-Lys-Lys-Nle-(2-Nal)Ala-Phe-(2-Nal)Ala] (H-KKK[Nle][2Nal]F[2Nal]-NH2) | 59% | 14 µM | 104 µM | 64 µg/mL (≈ 60.6 µM) | 32 to 64 µg/mL | 64 µg/mL (≈ 60.6 µM) | 64 µg/mL (≈ 60.6 µM) | 64 µg/mL (≈ 60.6 µM) | >64 µg/mL | 32 µg/mL (≈ 30.3 µM) | 64 µg/mL (≈ 60.6 µM) | 64 µg/mL (≈ 60.6 µM) | 32 µg/mL (≈ 30.3 µM) | ≤ 2 h | complete killing of P. aeruginosa ([4]; up to highest tested concentration (8x MIC)): not able to completely kill; also recorded: not able to eliminate
2 | CCCC[C@@H](NC(=O)[C@H](CCCCN)NC(=O)[C@H](CCCCN)NC(=O)[C@@H](N)CCCCN)C(=O)N[C@H](Cc1cccc2ccccc12)C(=O)N[C@H](Cc1ccccc1)C(=O)N[C@H](Cc1cccc2ccccc12)C(N)=O [Compound 26, Lys-Lys-Lys-nle-(1-Nal)ala-phe-(1-Nal)ala] (H-KKK[dNle][d1Nal][dF][d1Nal]-NH2; N-terminus assumed) | 56% | – | 63 µM | >64 µg/mL | 64 µg/mL (≈ 60.6 µM) | >64 µg/mL | >64 µg/mL | >64 µg/mL | >64 µg/mL | >64 µg/mL | >64 µg/mL | >64 µg/mL | 64 µg/mL (≈ 60.6 µM) | ≤ 2 h | time to complete killing of MRSP C22963 ([5]; 0.5x MIC): ≤ 1 h
3 | CCCCN(CC(=O)N[C@@H](CCCCN)C(=O)N(CC(=O)N(CC(=O)N(CC(N)=O)Cc1cccc2ccccc12)Cc1ccc(C)cc1)Cc1cccc2ccccc12)C(=O)[C@H](CCCCN)NC(=O)[C@@H](N)CCCCN [B1, Lys-Lys-(NBu)Gly-Lys-(N1-Nal)Gly-(N4-MeBn)Gly-(N1-Nal)Gly] (H-KK[NBuGly]K[N(1-naphthylmethyl)Gly][N(4-MeBn)Gly][N(1-naphthylmethyl)Gly]-NH2) | 32% | 64 µM | 230 µM | – | – | – | – | – | – | – | – | – | 8 µg/mL (≈ 7.47 µM) | – | Minimum Inhibitory Concentration MSSA (ATCC 29213) [6]: 8 to 16 µg/mL; MICs for the three S. aureus isolates tested [3]: 4 to 8 µg/mL; killing of P. aeruginosa 26314 ([4]; 1x MIC, delayed re-growth): did not eliminate; time to kill P. aeruginosa 26314 ([4]; 2x MIC): 24 h; time to kill P. aeruginosa 26314 ([4]; 4x MIC): 2 h; time to kill P. aeruginosa ([4]; 8 x MIC): less than 30 min; degradation by protease mix Pronase [7]: 38%
